Earlier results on 1 molecule are cited in patent US20170014380A1, “Vildagliptin Formulation Process Under Inert Gas Atmosphere” (Sanovell IIac Sanayi Ve Ticaret Anonim Sirketi, priority 2014, published 2017).

Consider `N#C[C@@H]1CCCN1C(=O)CN[C@@]12C[C@@H]3C[C@@H](CC(O)(C3)C1)C2` [Vildagliptin, (S)-{[(3-hydroxyadamantan-1-yl)amino]acetyl}pyrrolidine-2-carbonitril], for which the “solubility in organic polar solvents” value (in organic polar solvents) is reported as “soluble”. Also, the solubility in water entry (in water) was “soluble”.
